The source of these data is ChEMBL document CHEMBL5303304, “EUbOPEN Chemogenomics Library - IncuCyte” (2023).

Common to all, as to format: toxicity, cell-based
In data set [1] the test system is HEK-293T. Nature of the data set: Incucyte cell viability with HEK293T. As to conditions: human, 10 µM, compound concentration 10 uM.
Data set [2] deals with Fibroblast. Nature of the data set: Incucyte cell viability with human fibroblast. To be noted: 10 µM, compound concentration 10 uM.
Data set [3] deals with U2OS. Nature of the data set: Incucyte cell viability with U2OS. As to conditions: human, 10 µM, compound concentration 10 uM.
Also: unitless GR value; below 1 slowed growth and below 0 cell loss.

Turning to `CC[C@@H](CO)Nc1nc(Nc2cccc(NC(=O)C(C)(C)C)c2)ncc1F`, the “Growth Rate” value in data set [1] (0 h, replicate number 1) was determined as 0.29; in data set [1] (12 h, replicate number 1) it was 0.87; in data set [1] (24 h, replicate number 1), 0.96; in data set [2] (0 h, replicate number 2), 0.61; in data set [3] (0 h, replicate number 2), 0.94; in data set [3] (6 h, replicate number 1) it was 0.56. Moreover, the “Growth Rate” value came to 0.8 in data set [3] (6 h, replicate number 2); 0.66 in data set [3] (12 h, replicate number 1); 0.83 in data set [3] (12 h, replicate number 2); 0.87 in data set [3] (18 h, replicate number 1); 0.86 in data set [3] (18 h, replicate number 2); 0.91 in data set [3] (24 h, replicate number 1). The “Growth Rate” value in data set [3] (24 h, replicate number 2) is 0.89.
As for `CC[C@@H]1C(=O)N(C)c2cnc(Nc3ccc(C(=O)NC4CCN(C)CC4)cc3OC)nc2N1C1CCCC1` [BI-2536], the “Growth Rate” value in data set [1] (6 h, replicate number 1) is 0.45; in data set [1] (6 h, replicate number 2), 0.73; in data set [1] (12 h, replicate number 1), -0.09; in data set [1] (12 h, replicate number 2) it was 0.08; in data set [1] (18 h, replicate number 1), -0.18; in data set [1] (24 h, replicate number 1), -0.17. In addition, the “Growth Rate” value is -0.18 in data set [1] (24 h, replicate number 2); -0.99 in data set [2] (0 h, replicate number 2); 0.76 in data set [2] (18 h, replicate number 1); 0.83 in data set [2] (18 h, replicate number 2); 0.41 in data set [2] (24 h, replicate number 1); 0.46 in data set [2] (24 h, replicate number 2). The “Growth Rate” value was 0.33 in data set [3] (0 h, replicate number 2); 0.69 in data set [3] (12 h, replicate number 1); 0.59 in data set [3] (12 h, replicate number 2); 0.34 in data set [3] (18 h, replicate number 1); 0.42 in data set [3] (18 h, replicate number 2); 0.08 in data set [3] (24 h, replicate number 1). The “Growth Rate” value in data set [3] (24 h, replicate number 2) worked out at 0.3.
Turning to `CC(=O)O[C@H]1C(=O)[C@@]2(C)[C@H]([C@H](OC(=O)c3ccccc3)[C@]3(O)C[C@H](OC(=O)[C@H](O)[C@@H](NC(=O)c4ccccc4)c4ccccc4)C(C)=C1C3(C)C)[C@]1(OC(C)=O)CO[C@@H]1C[C@@H]2O` [PACLITAXEL], the “Growth Rate” value in data set [1] (6 h, replicate number 1) is on record as -0.33; in data set [1] (6 h, replicate number 2) it was -0.69; in data set [1] (12 h, replicate number 1), -0.21; in data set [1] (12 h, replicate number 2), -0.41; in data set [1] (18 h, replicate number 1), -0.08; in data set [1] (18 h, replicate number 2), -0.22. Further, the “Growth Rate” value is 0.05 in data set [1] (24 h, replicate number 1); -0.02 in data set [1] (24 h, replicate number 2); -1 in data set [2] (0 h, replicate number 1); -0.64 in data set [2] (6 h, replicate number 1); -0.99 in data set [2] (6 h, replicate number 2); -0.7 in data set [2] (12 h, replicate number 1). The “Growth Rate” value in data set [2] (12 h, replicate number 2) is given as -0.57; in data set [2] (18 h, replicate number 1), -0.54; in data set [2] (18 h, replicate number 2), -0.67; in data set [2] (24 h, replicate number 1) it was -0.39; in data set [2] (24 h, replicate number 2) it was -0.34; in data set [3] (0 h, replicate number 1), -0.26. Besides, the “Growth Rate” value in data set [3] (0 h, replicate number 2) is recorded as -0.23; in data set [3] (6 h, replicate number 1), -0.32; in data set [3] (6 h, replicate number 2), -0.43; in data set [3] (12 h, replicate number 1), -0.21; in data set [3] (12 h, replicate number 2), -0.45; in data set [3] (18 h, replicate number 1) it was -0.26. Also, the “Growth Rate” value in data set [3] (18 h, replicate number 2) is recorded as -0.43; in data set [3] (24 h, replicate number 1) it was -0.07; in data set [3] (24 h, replicate number 2), -0.18.
For the compound `NC(=O)c1ccc(-c2nc(-c3ccc4c(c3)OCO4)c(-c3ccccn3)[nH]2)cc1.O`, the “Growth Rate” value is 0.76 in data set [1] (0 h, replicate number 1); -0.21 in data set [2] (0 h, replicate number 1); -0.01 in data set [2] (6 h, replicate number 1); -0.54 in data set [2] (6 h, replicate number 2); -0.48 in data set [2] (18 h, replicate number 1); -0.57 in data set [3] (0 h, replicate number 1). For the same compound, the “Growth Rate” value in data set [3] (0 h, replicate number 2) is -0.09; in data set [3] (6 h, replicate number 1), 0.96; in data set [3] (12 h, replicate number 1) it was 0.79; in data set [3] (18 h, replicate number 1) it was 0.95; in data set [3] (18 h, replicate number 2), 0.79; in data set [3] (24 h, replicate number 1), 0.94.
For `COc1cc(OC)c(NC(=O)Nc2cc(C)on2)cc1Cl`, the “Growth Rate” value was 0.72 in data set [1] (0 h, replicate number 1); 0.7 in data set [1] (0 h, replicate number 2); -0.96 in data set [2] (0 h, replicate number 2); 0.03 in data set [2] (6 h, replicate number 1); -1 in data set [2] (12 h, replicate number 1); 0.98 in data set [3] (6 h, replicate number 2). Further, the “Growth Rate” value in data set [3] (18 h, replicate number 1) was found to be 0.96; in data set [3] (18 h, replicate number 2) it was 0.82.
Take `Cn1ncc(-c2nc(N[C@H]3CC[C@H](N)CC3)ncc2Cl)c1CC1CC1` [BTX-A51]: the “Growth Rate” value in data set [1] (0 h, replicate number 1) is on record as -0.79; in data set [1] (24 h, replicate number 1), 0.57; in data set [1] (24 h, replicate number 2), 0.67; in data set [2] (0 h, replicate number 1), -0.32; in data set [2] (0 h, replicate number 2), -0.85; in data set [3] (18 h, replicate number 2), 0.89. In addition, the “Growth Rate” value in data set [3] (24 h, replicate number 2) is given as 0.74.
Take `Cc1nnc2n1-c1sc3c(c1C(c1ccccc1Cl)=NC2)CC(C(=O)N1CCOCC1)C3` (stereo not given) [BEPAFANT]: the “Growth Rate” value in data set [1] (0 h, replicate number 1) is 0.58; in data set [1] (0 h, replicate number 2) it was 0; in data set [1] (18 h, replicate number 2), 0.99; in data set [2] (0 h, replicate number 2), -0.12; in data set [2] (6 h, replicate number 1), 0.34; in data set [2] (12 h, replicate number 2) it was 0.71. Besides, the “Growth Rate” value is 0.77 in data set [2] (18 h, replicate number 1); 0.79 in data set [2] (18 h, replicate number 2); 0.87 in data set [2] (24 h, replicate number 1); 0.92 in data set [2] (24 h, replicate number 2); 0.52 in data set [3] (6 h, replicate number 1); 0.91 in data set [3] (6 h, replicate number 2). For the same compound, the “Growth Rate” value stood at 0.9 in data set [3] (12 h, replicate number 1) and 0.89 in data set [3] (24 h, replicate number 1).
As to `Cc1nccn1CC1CCc2c(c3ccccc3n2C)C1=O.Cl` (stereo not given), the “Growth Rate” value in data set [1] (6 h, replicate number 1) is reported as 0.82; in data set [1] (6 h, replicate number 2), 0.6; in data set [1] (12 h, replicate number 2) it was 0.75; in data set [1] (18 h, replicate number 2) it was 0.79; in data set [1] (24 h, replicate number 2), 0.87; in data set [2] (24 h, replicate number 2), 0.9. Moreover, the “Growth Rate” value in data set [3] (0 h, replicate number 1) is recorded as -0.28; in data set [3] (6 h, replicate number 1) it was 0.77; in data set [3] (6 h, replicate number 2) it was 0.44; in data set [3] (12 h, replicate number 1) it was 0.96; in data set [3] (18 h, replicate number 1), 0.91; in data set [3] (18 h, replicate number 2), 0.88.
As for `CC(C)(C#Cc1ccc(NC(=O)COc2ccccc2C(=O)c2ccccc2)c(Cl)c1)C(=O)O` [BI 2439], the “Growth Rate” value in data set [1] (6 h, replicate number 1) is given as 0.72; in data set [1] (6 h, replicate number 2), 0.41; in data set [1] (12 h, replicate number 1), 0.81; in data set [1] (12 h, replicate number 2), 0.42; in data set [1] (18 h, replicate number 1) it was 0.78; in data set [1] (18 h, replicate number 2), 0.62. Besides, the “Growth Rate” value in data set [1] (24 h, replicate number 1) is on record as 0.79; in data set [1] (24 h, replicate number 2), 0.69; in data set [2] (0 h, replicate number 2), -0.64; in data set [2] (6 h, replicate number 1), 0.59; in data set [2] (12 h, replicate number 2), 0.66; in data set [2] (18 h, replicate number 1), 0.92. Also, the “Growth Rate” value in data set [2] (24 h, replicate number 1) is reported as 0.89; in data set [3] (0 h, replicate number 2), -0.27; in data set [3] (6 h, replicate number 1), 1; in data set [3] (6 h, replicate number 2), 0.76; in data set [3] (12 h, replicate number 2) it was 0.68; in data set [3] (18 h, replicate number 2), 0.81. Moreover, the “Growth Rate” value in data set [3] (24 h, replicate number 2) was found to be 0.76.
`Cc1ccc(NS(=O)(=O)c2ccc3c(c2)C2C=CCC2C(c2ccc(C(=O)O)cc2)N3)cc1C` (stereo not given): the “Growth Rate” value in data set [1] (0 h, replicate number 2) was -0.87; in data set [1] (12 h, replicate number 1) it was 0.89; in data set [1] (18 h, replicate number 1), 0.79; in data set [2] (0 h, replicate number 2), 0.82; in data set [2] (6 h, replicate number 1) it was -0.66; in data set [2] (6 h, replicate number 2) it was 0.01. Also, the “Growth Rate” value in data set [2] (12 h, replicate number 1) was found to be 0.86; in data set [2] (12 h, replicate number 2), 0.36; in data set [2] (18 h, replicate number 1) it was 0.83; in data set [2] (24 h, replicate number 1) it was 0.65; in data set [2] (24 h, replicate number 2), 0.72; in data set [3] (0 h, replicate number 1), 0.88. Moreover, the “Growth Rate” value came out at 0.79 in data set [3] (6 h, replicate number 1); 0.82 in data set [3] (12 h, replicate number 1); 0.87 in data set [3] (18 h, replicate number 1); 0.99 in data set [3] (18 h, replicate number 2); 0.93 in data set [3] (24 h, replicate number 1); 0.91 in data set [3] (24 h, replicate number 2).
Consider `O=C(Nc1ccccc1C(=O)O)c1cc(S(=O)(=O)c2ccccc2)ccc1Cl`, for which the “Growth Rate” value in data set [1] (0 h, replicate number 1) was -0.5; in data set [1] (0 h, replicate number 2), -0.73; in data set [1] (6 h, replicate number 1), 0.7; in data set [1] (12 h, replicate number 1), 0.52; in data set [1] (12 h, replicate number 2), 0.88; in data set [1] (18 h, replicate number 1), 0.3. The “Growth Rate” value in data set [1] (18 h, replicate number 2) was 0.41; in data set [1] (24 h, replicate number 1) it was 0.24; in data set [1] (24 h, replicate number 2), 0.34; in data set [2] (0 h, replicate number 2), -0.73; in data set [3] (0 h, replicate number 2), 0.97; in data set [3] (12 h, replicate number 2), 0.55. The “Growth Rate” value in data set [3] (18 h, replicate number 1) was found to be 0.96; in data set [3] (18 h, replicate number 2), 0.65; in data set [3] (24 h, replicate number 1), 0.79; in data set [3] (24 h, replicate number 2) it was 0.8.
With `COC(=O)c1sccc1S(=O)(=O)Nc1ccc(Nc2ccccc2)cc1OC`, the “Growth Rate” value in data set [1] (0 h, replicate number 2) was -0.92; in data set [1] (6 h, replicate number 2), 0.93; in data set [1] (12 h, replicate number 2), 0.77; in data set [2] (0 h, replicate number 2), 0.71; in data set [2] (6 h, replicate number 2), 0.48; in data set [2] (12 h, replicate number 2), 0.47. Moreover, the “Growth Rate” value in data set [2] (18 h, replicate number 2) is listed as 0.95; in data set [2] (24 h, replicate number 2) it was 0.74; in data set [3] (0 h, replicate number 1), -0.11; in data set [3] (6 h, replicate number 1), 0.61; in data set [3] (6 h, replicate number 2), 0.91; in data set [3] (12 h, replicate number 1), 0.91. Further, the “Growth Rate” value amounted to 0.81 in data set [3] (18 h, replicate number 1); 0.9 in data set [3] (18 h, replicate number 2); 0.82 in data set [3] (24 h, replicate number 2).
